ChEMBL document CHEMBL1914418, “Biochemical and pharmacological profiling of the pro-survival protein Bcl-xL” (Bioorg Med Chem Lett, 2011)

Experiments:
Bcl-2-like protein 1 [1] = biological target: Bcl-2-like protein 1 (Homo sapiens, UniProt Q07817, Y101H); assay: Displacement of BODIPY-Bak conjugated peptide from GST-tagged human Bcl-2-like protein 1 Y101H mutant expressed in Escherichia coli BL21 cells at 10 uM after 3 hrs by fluorescence polarization competition assay
Bcl-2-like protein 1 [2] = biological target: Bcl-2-like protein 1 (Homo sapiens, UniProt Q07817, F97V); assay: Displacement of BODIPY-Bak conjugated peptide from GST-tagged human Bcl-2-like protein 1 F97V mutant expressed in Escherichia coli BL21 cells at 10 uM after 3 hrs by fluorescence polarization competition assay
Bcl-2-like protein 1 [3] = biological target: Bcl-2-like protein 1 (Homo sapiens, UniProt Q07817, L130G); assay: Displacement of BODIPY-Bak conjugated peptide from GST-tagged human Bcl-2-like protein 1 L130G mutant expressed in Escherichia coli BL21 cells at 10 uM after 3 hrs by fluorescence polarization competition assay
Bcl-2-like protein 1 [4] = biological target: Bcl-2-like protein 1 (Homo sapiens, UniProt Q07817, E96G); assay: Displacement of BODIPY-Bak conjugated peptide from GST-tagged human Bcl-2-like protein 1 E96G mutant expressed in Escherichia coli BL21 cells at 10 uM after 3 hrs by fluorescence polarization competition assay
Bcl-2-like protein 1 [5] = biological target: Bcl-2-like protein 1 (Homo sapiens, UniProt Q07817, A93V); assay: Displacement of BODIPY-Bak conjugated peptide from GST-tagged human Bcl-2-like protein 1 A93V mutant expressed in Escherichia coli BL21 cells at 10 uM after 3 hrs by fluorescence polarization competition assay
[6] = biological target: Induced myeloid leukemia cell differentiation protein Mcl-1 homolog (Mus musculus, UniProt P97287); assay: Binding affinity for GST-tagged mouse MCL1 expressed in Escherichia coli BL21 cells
Bcl-2-like protein 1 [7] = biological target: Bcl-2-like protein 1 (Homo sapiens, UniProt Q07817, V141A); assay: Displacement of BODIPY-Bak conjugated peptide from GST-tagged human Bcl-2-like protein 1 V141A mutant expressed in Escherichia coli BL21 cells at 10 uM after 3 hrs by fluorescence polarization competition assay
Bcl-2-like protein 1 [8] = biological target: Bcl-2-like protein 1 (Homo sapiens, UniProt Q07817); assay: Displacement of BODIPY-Bak conjugated peptide from GST-tagged human Wild type Bcl-2-like protein 1 expressed in Escherichia coli BL21 cells at 10 uM after 3 hrs by fluorescence polarization competition assay
Bcl-2-related protein A1 = biological target: T1, Bcl-2-related protein A1 (Homo sapiens, UniProt Q16548); assay: Binding affinity for GST-tagged human BCL2A1 expressed in Escherichia coli BL21 cells
T1 sequence (Q16548 whole entry): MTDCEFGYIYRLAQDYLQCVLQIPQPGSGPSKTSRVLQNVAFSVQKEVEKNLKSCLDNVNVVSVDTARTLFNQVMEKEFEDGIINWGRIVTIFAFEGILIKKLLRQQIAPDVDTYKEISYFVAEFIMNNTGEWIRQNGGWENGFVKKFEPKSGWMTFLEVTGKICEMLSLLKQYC

Bcl-2-like protein 1 [9] = biological target: Bcl-2-like protein 1 (Homo sapiens, UniProt Q07817, A142G); assay: Displacement of BODIPY-Bak conjugated peptide from GST-tagged human Bcl-2-like protein 1 A142G mutant expressed in Escherichia coli BL21 cells at 10 uM after 3 hrs by fluorescence polarization competition assay
[10] = Displacement of BODIPY-Bak conjugated peptide from GST-tagged human Bcl-2-like protein 1 A142Gdelta136T mutant expressed in Escherichia coli BL21 cells at 10 uM after 3 hrs by fluorescence polarization competition assay
[11] = Displacement of BODIPY-Bak conjugated peptide from GST-tagged human Bcl-2-like protein 1 delta136T mutant expressed in Escherichia coli BL21 cells at 10 uM after 3 hrs by fluorescence polarization competition assay
Bcl-2-like protein 1 [12] = biological target: Bcl-2-like protein 1 (Homo sapiens, UniProt Q07817, A142T); assay: Displacement of BODIPY-Bak conjugated peptide from GST-tagged human Bcl-2-like protein 1 A142T mutant expressed in Escherichia coli BL21 cells at 10 uM after 3 hrs by fluorescence polarization competition assay
Bcl-2-like protein 1 [13] = biological target: Bcl-2-like protein 1 (Homo sapiens, UniProt Q07817, G196A); assay: Displacement of BODIPY-Bak conjugated peptide from GST-tagged human Bcl-2-like protein 1 G196A mutant expressed in Escherichia coli BL21 cells at 10 uM after 3 hrs by fluorescence polarization competition assay
Bcl-2-like protein 1 [14] = biological target: Bcl-2-like protein 1 (Homo sapiens, UniProt Q07817, Y195F); assay: Displacement of BODIPY-Bak conjugated peptide from GST-tagged human Bcl-2-like protein 1 Y195F mutant expressed in Escherichia coli BL21 cells at 10 uM after 3 hrs by fluorescence polarization competition assay
Bcl-2-like protein 1 [15] = biological target: Bcl-2-like protein 1 (Homo sapiens, UniProt Q07817, E129H); assay: Displacement of BODIPY-Bak conjugated peptide from GST-tagged human Bcl-2-like protein 1 E129H mutant expressed in Escherichia coli BL21 cells at 10 uM after 3 hrs by fluorescence polarization competition assay
Bcl-2-like protein 1 [16] = biological target: Bcl-2-like protein 1 (Homo sapiens, UniProt Q07817, L130A); assay: Displacement of BODIPY-Bak conjugated peptide from GST-tagged human Bcl-2-like protein 1 L130A mutant expressed in Escherichia coli BL21 cells at 10 uM after 3 hrs by fluorescence polarization competition assay
Sequence of Bcl-2-like protein 1 (Homo sapiens, UniProt Q07817, L130A) (Q07817 whole entry L130A): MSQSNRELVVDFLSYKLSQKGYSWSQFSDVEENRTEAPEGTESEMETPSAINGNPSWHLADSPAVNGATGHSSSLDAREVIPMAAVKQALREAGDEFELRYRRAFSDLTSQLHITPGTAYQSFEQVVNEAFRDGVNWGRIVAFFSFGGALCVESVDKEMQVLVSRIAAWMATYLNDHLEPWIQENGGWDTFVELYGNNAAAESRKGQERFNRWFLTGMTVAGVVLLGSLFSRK

Sequence of Bcl-2-like protein 1 (Homo sapiens, UniProt Q07817, L130G) (Q07817 whole entry L130G): as the sequence (Q07817 whole entry L130A) above, with A130G counted along it
Sequence of Bcl-2-like protein 1 (Homo sapiens, UniProt Q07817, G196A) (Q07817 whole entry G196A): as the sequence (Q07817 whole entry L130A) above, with A130L, G196A counted along it
Sequence of Bcl-2-like protein 1 (Homo sapiens, UniProt Q07817, Y101H) (Q07817 whole entry Y101H): as the sequence (Q07817 whole entry L130A) above, with Y101H, A130L counted along it
Sequence of Bcl-2-like protein 1 (Homo sapiens, UniProt Q07817, F97V) (Q07817 whole entry F97V): as the sequence (Q07817 whole entry L130A) above, with F97V, A130L counted along it
Sequence of Bcl-2-like protein 1 (Homo sapiens, UniProt Q07817) (Q07817 whole entry): as the sequence (Q07817 whole entry L130A) above, with A130L counted along it
Sequence of Induced myeloid leukemia cell differentiation protein Mcl-1 homolog (P97287 whole entry): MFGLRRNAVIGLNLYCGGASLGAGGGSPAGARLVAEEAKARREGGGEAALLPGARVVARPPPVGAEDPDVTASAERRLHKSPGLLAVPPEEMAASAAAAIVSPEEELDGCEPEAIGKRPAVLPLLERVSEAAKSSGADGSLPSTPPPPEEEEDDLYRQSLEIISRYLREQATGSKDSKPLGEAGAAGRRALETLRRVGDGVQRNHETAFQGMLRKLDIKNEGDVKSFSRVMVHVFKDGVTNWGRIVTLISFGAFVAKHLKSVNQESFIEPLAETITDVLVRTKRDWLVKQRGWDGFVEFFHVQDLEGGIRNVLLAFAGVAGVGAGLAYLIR
Sequence of Bcl-2-like protein 1 (Homo sapiens, UniProt Q07817, Y195F) (Q07817 whole entry Y195F): as the sequence (Q07817 whole entry L130A) above, with A130L, Y195F counted along it
Sequence of Bcl-2-like protein 1 (Homo sapiens, UniProt Q07817, V141A) (Q07817 whole entry V141A): as the sequence (Q07817 whole entry L130A) above, with A130L, V141A counted along it
Sequence of Bcl-2-like protein 1 (Homo sapiens, UniProt Q07817, A142T) (Q07817 whole entry A142T): as the sequence (Q07817 whole entry L130A) above, with A130L, A142T counted along it
Sequence of Bcl-2-like protein 1 (Homo sapiens, UniProt Q07817, A142G) (Q07817 whole entry A142G): as the sequence (Q07817 whole entry L130A) above, with A130L, A142G counted along it
Sequence of Bcl-2-like protein 1 (Homo sapiens, UniProt Q07817, E96G) (Q07817 whole entry E96G): as the sequence (Q07817 whole entry L130A) above, with E96G, A130L counted along it
Sequence of Bcl-2-like protein 1 (Homo sapiens, UniProt Q07817, A93V) (Q07817 whole entry A93V): as the sequence (Q07817 whole entry L130A) above, with A93V, A130L counted along it
Sequence of Bcl-2-like protein 1 (Homo sapiens, UniProt Q07817, E129H) (Q07817 whole entry E129H): as the sequence (Q07817 whole entry L130A) above, with E129H, A130L counted along it

Ki (Bcl-2-like protein 1 [1]): 450 nM
Ki (Bcl-2-like protein 1 [2]): 82 nM
Ki (Bcl-2-like protein 1 [3]): 86 nM
Ki (Bcl-2-like protein 1 [4]): 24 nM
Ki (Bcl-2-like protein 1 [5]): < 1 nM
Kd [6]: > 1000 nM
Ki (Bcl-2-like protein 1 [7]): 390 nM
Ki (Bcl-2-like protein 1 [8]): 6.3 nM
Kd (Bcl-2-related protein A1): > 1000 nM
Ki (Bcl-2-like protein 1 [9]): 290 nM
Ki (Bcl-2-like protein 1 [12]): 720 nM
Ki (Bcl-2-like protein 1 [13]): 41 nM
Ki (Bcl-2-like protein 1 [14]): 51 nM
Ki (Bcl-2-like protein 1 [15]): 34 nM
Ki (Bcl-2-like protein 1 [16]): 47 nM
Compound: CN(C)CC[C@H](CSc1ccccc1)Nc1ccc(S(=O)(=O)NC(=O)c2ccc(N3CCC(C)(C)CC3)cc2)cc1[N+](=O)[O-]
Ki [10]: 45 nM
Ki [11]: 34 nM
